Test results taken from publication PMC10847848, “Production of recombinant intact and N-terminal truncated lipoxygenase isozyme III expressed in Saccharomyces cerevisiae and its influence on glutenin polypeptides” (Food Chemistry: Molecular Sciences, 2024).

How the values were obtained:
recombinant Mini-LOX III = target: T1, recombinant Mini-LOX III (Triticum aestivum, UniProt F1DTB8); assay: conjugated diene absorbance at […] nm, Lineweaver-Burk; type: biochemical; details: crude yeast extract in 50 mM phosphate pH 7.6 (extraction buffer); methods print linoleic acid range as 10 mM to 70 mM, conflicting with Km in µM
T1 construct: gene LOX3; cut placed by alignment to soybean Mini-LOX STPIEFHSFQ; pGK423, S. cerevisiae BY4741; crude soluble extract
T1 sequence (F1DTB8 343-878 limits assumed): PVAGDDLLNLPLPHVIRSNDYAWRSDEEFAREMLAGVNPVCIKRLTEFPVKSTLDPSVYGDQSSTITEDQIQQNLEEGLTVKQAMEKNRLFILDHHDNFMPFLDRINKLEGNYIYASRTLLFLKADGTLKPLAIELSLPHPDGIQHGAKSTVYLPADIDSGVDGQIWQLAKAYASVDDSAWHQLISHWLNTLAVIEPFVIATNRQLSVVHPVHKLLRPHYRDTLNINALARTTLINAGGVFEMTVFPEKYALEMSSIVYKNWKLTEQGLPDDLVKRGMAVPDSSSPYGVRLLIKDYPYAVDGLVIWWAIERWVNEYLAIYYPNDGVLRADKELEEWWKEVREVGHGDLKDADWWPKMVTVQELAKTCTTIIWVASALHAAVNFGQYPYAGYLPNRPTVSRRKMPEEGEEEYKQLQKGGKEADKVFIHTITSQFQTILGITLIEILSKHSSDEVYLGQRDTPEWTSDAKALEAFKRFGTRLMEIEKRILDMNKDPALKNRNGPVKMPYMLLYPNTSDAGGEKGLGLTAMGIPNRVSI

recombinant LOX III = target: T2, recombinant LOX III (Triticum aestivum, UniProt F1DTB8); assay: as above; type: biochemical; details: crude yeast extract in 50 mM phosphate pH 7.6 (extraction buffer); methods print linoleic acid range as 10 mM to 70 mM, conflicting with Km in µM
T2 construct: gene LOX3; full length, 878 residues, 95 kDa; codon-optimised; LOX III-2A-mClover3 in pGK423, S. cerevisiae BY4741; crude soluble extract
T2 sequence (F1DTB8 1-878): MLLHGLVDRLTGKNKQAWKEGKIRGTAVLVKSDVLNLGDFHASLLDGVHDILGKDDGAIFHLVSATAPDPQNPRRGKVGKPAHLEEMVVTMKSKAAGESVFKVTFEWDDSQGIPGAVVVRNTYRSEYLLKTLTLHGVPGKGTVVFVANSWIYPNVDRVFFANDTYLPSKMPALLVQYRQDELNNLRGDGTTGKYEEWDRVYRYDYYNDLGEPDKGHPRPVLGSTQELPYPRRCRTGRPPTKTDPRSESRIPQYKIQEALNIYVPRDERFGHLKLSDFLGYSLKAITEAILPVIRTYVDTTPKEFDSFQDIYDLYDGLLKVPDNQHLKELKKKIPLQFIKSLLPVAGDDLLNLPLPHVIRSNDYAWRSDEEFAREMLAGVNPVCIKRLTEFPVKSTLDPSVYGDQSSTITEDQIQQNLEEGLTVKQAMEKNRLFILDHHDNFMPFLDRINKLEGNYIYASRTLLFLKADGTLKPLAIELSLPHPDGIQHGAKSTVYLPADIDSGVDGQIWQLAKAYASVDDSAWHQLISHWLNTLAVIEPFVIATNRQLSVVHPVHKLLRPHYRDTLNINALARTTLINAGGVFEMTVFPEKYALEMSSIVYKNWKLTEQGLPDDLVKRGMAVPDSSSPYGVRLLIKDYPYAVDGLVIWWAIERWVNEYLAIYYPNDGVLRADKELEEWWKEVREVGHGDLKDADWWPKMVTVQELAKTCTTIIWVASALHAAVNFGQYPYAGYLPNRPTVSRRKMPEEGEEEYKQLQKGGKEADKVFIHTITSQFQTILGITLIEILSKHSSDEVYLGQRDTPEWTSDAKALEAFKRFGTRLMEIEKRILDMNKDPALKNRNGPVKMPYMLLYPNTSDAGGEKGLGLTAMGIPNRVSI

Km (recombinant Mini-LOX III): 21.3 µM
Km (recombinant LOX III): 25.7 µM
SMILES: CCCCC/C=C\C/C=C\CCCCCCCC(=O)O [linoleic acid]
